Data on two molecules can be found in paper PMC3969271, “A Bacterial Homolog of a Eukaryotic Inositol Phosphate Signaling Enzyme Mediates Cross-kingdom Dialog in the Mammalian Gut” (Cell Reports, 2014).

The target of assay [1] is T1, BtMinpp (Bacteroides thetaiotaomicron, UniProt Q89YI8).
T1 construct: gene BT_4744; N-terminal 6xHis fusion, expressed in Escherichia coli
T1 sequence (Q89YI8 21-425): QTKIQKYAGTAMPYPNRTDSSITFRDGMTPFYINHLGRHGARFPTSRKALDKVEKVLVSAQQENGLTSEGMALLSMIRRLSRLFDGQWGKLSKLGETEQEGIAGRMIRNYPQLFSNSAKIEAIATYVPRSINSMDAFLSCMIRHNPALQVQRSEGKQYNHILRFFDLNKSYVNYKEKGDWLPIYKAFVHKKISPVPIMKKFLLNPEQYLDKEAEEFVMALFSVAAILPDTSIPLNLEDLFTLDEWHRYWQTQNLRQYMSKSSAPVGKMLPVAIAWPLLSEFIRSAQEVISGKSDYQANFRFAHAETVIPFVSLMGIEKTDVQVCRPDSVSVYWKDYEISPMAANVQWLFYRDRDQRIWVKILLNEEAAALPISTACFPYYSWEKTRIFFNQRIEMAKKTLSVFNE
Nature of the assay: X-ray crystal structure, […] Å. As to conditions: active site; nonhydrolysable InsP6 analog. In kind it is binding.

Assay [2] deals with T1, BtMinpp. Nature of the assay: HPLC of […]-labelled products; phosphatase activity. In kind it is biochemical. As to conditions: 1 mM InsP6; 0.25 μg/ml enzyme; labelled compound.

As for `O=S(=O)(O)O[C@H]1[C@H](OS(=O)(=O)O)[C@@H](OS(=O)(=O)O)[C@H](OS(=O)(=O)O)[C@@H](OS(=O)(=O)O)[C@H]1OS(=O)(=O)O` [InsS6, myo-inositol hexakissulfate], the “X-ray crystal structure, 2.42 Å” value on BtMinpp [1] is listed as “myo-inositol hexakissulfate (InsS6), again bound in the active sites of both molecules”.
As for `O=P(O)(O)O[C@H]1[C@H](OP(=O)(O)O)[C@@H](OP(=O)(O)O)[C@H](OP(=O)(O)O)[C@@H](OP(=O)(O)O)[C@H]1OP(=O)(O)O` [InsP6], the “HPLC of 32P-labelled products; phosphatase activity” value at BtMinpp [2] is “confirmed that this protein has InsP6 phosphatase activity (Figure 1A)”.
